The test system of data set [1] is Mus musculus. Put plainly: Antidiabetic activity in C57BLKS/J-m+/+Leprdb db/db mouse assessed as reduction in plasma glucose levels at 10 mg/kg, po once daily for 11 days relative to control. On the set-up: scale not given: the % may be the effect or the level left. The format is functional.
The target in data set [2] is T1, Peroxisome proliferator-activated receptor alpha (Homo sapiens, UniProt Q07869).
T1 sequence (Q07869 whole entry): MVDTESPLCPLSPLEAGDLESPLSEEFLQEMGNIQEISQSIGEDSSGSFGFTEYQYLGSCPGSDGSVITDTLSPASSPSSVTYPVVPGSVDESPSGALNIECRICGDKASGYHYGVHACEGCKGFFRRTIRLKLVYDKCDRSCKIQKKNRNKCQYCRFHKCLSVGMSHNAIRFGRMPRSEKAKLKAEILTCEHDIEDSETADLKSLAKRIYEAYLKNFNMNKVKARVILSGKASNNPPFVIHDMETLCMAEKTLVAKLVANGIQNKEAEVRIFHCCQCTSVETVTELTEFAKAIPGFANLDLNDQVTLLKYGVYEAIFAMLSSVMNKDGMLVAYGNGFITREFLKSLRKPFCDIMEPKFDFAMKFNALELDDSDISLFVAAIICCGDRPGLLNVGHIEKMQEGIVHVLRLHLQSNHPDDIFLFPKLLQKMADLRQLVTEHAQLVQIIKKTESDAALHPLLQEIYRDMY
Put plainly: Inhibition of human PPARalpha receptor by scintillation proximity assay. (Scintillation proximity formats need no separation of bound from free tracer.)

Data set [3] deals with T2, Peroxisome proliferator-activated receptor gamma (Homo sapiens, UniProt P37231).
T2 sequence (P37231 whole entry): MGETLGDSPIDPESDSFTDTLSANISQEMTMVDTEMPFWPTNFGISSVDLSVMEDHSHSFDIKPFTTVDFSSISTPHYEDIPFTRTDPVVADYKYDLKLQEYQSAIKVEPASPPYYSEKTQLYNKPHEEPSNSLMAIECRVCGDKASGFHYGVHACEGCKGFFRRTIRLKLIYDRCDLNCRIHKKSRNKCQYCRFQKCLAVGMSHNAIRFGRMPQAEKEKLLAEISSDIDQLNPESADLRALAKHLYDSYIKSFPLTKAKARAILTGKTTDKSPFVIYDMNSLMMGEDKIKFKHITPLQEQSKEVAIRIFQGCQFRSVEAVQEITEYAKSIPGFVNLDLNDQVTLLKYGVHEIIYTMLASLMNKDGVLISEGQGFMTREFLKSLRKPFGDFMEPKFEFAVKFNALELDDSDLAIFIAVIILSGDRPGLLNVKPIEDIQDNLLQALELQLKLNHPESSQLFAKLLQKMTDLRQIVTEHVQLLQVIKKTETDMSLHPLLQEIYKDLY
Description: Agonist activity at human PPARgamma receptor expressed in african green monkey COS1 cells co-transfected with fused yeast Gal4-DBD by transactivation assay

Data set [4] has as its target T2, Peroxisome proliferator-activated receptor gamma. This is another data set of the same source.
Description: Inhibition of human PPARgamma receptor by scintillation proximity assay
Data set [5] has as its target T1, Peroxisome proliferator-activated receptor alpha. Format: functional, cell-based, COS-1.
Description: Agonist activity at human PPARalpha receptor expressed in african green monkey COS1 cells co-transfected with fused yeast Gal4-DBD by transactivation assay
Data set [6] in a line: AUC in rat at 2 mg/kg, po. Format: ADME, organism-based, Plasma. On the set-up: dose 2 mg/kg, route oral. Conditions: plasma.
Data set [7] deals with T3, Peroxisome proliferator-activated receptor alpha (Mus musculus, UniProt P23204).
T3 sequence (P23204 whole entry): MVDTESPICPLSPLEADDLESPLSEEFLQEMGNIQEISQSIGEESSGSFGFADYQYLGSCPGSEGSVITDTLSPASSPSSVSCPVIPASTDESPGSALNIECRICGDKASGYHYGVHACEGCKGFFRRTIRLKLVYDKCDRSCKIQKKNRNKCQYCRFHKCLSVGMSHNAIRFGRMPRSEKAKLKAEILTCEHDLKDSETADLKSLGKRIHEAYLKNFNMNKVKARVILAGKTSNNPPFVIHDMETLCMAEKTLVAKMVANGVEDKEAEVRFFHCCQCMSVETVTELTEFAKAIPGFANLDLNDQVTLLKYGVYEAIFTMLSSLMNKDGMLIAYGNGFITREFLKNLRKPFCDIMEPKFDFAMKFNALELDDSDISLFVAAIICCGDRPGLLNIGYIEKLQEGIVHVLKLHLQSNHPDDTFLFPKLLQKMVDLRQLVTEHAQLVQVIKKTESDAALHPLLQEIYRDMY
Put plainly: Agonist activity at mouse PPARalpha receptor expressed in african green monkey COS1 cells co-transfected with fused yeast Gal4-DBD by transactivation assay. Format: functional, cell-based, COS-1.

Data set [8] concerns Mus musculus. Put plainly: Antidiabetic activity in C57BLKS/J-m+/+Leprdb db/db mouse assessed as reduction in plasma triglyceride levels at 10 mg/kg, po once daily for 11 days relative to control. Format: functional. On the set-up: scale not given: the % may be the effect or the level left.

Molecules are shown by their SMILES. Where only a bound is given, the exact number is not on record here.

Turning to `CCC[C@H](Oc1cccc(Cn2c(C)c(C(=O)c3ccc(Cl)cc3)c3ccc(OC(F)(F)F)cc32)c1)C(=O)O`, the Activity stood at 22% in the data set with Mus musculus [1] and 8% in the data set with Mus musculus [8]. In addition, the IC50 in data set [2] was > 50000 nM; in data set [4], 8 nM. Moreover, the EC50 in data set [3] is 1 nM; in data set [5] it was > 3000 nM; in data set [7], > 3000 nM. Further, in data set [6], the exposure (AUC) worked out at 1.2 µM·h.

Regarding `Cc1c(C(=O)c2ccc(Cl)cc2)c2ccc(OC(F)(F)F)cc2n1Cc1cccc(O[C@@H](C(=O)O)C(C)C)c1`, the Activity with Mus musculus [1] came to 101%; in the data set with Mus musculus [8] it was 87%. Also, the results for the IC50 in data set [2] and in data set [4] were 491 nM and 10 nM, respectively. Moreover, the EC50 in data set [3] was 2 nM; in data set [5] it was 2 nM; in data set [7] it was 40 nM. Also, the AUC in data set [6] turned out to be 3.5 µM·h.

On to `Cc1c(C(=O)c2ccc(Cl)cc2)c2ccc(OC(F)(F)F)cc2n1Cc1cccc(O[C@@H](C)C(=O)O)c1`, for which the results for the Activity in the data set on Mus musculus [1] and in the data set on Mus musculus [8] were 53% and 4%, respectively. The IC50 in data set [2] was > 15000 nM. Moreover, the EC50 is 4890 nM in data set [5] and > 3000 nM in data set [7]. The compound further yielded an AUC in data set [6] of 0.6 µM·h.

Regarding `CC[C@H](Oc1cccc(Cn2c(C)c(C(=O)c3ccc(Cl)cc3)c3ccc(OC(F)(F)F)cc32)c1)C(=O)O`, the Activity in the data set on Mus musculus [1] was determined as 22%; in the data set on Mus musculus [8], 7%. The IC50 in data set [2] was > 15000 nM; in data set [4], 4 nM. The 50% effective concentration (EC50) is 6 nM in data set [3], 500 nM in data set [5] and > 3000 nM in data set [7].

Regarding `Cc1c(C(=O)c2ccc(Cl)cc2)c2ccc(OC(F)(F)F)cc2n1Cc1cccc(OCC(=O)O)c1`, the IC50 in data set [2] was > 15000 nM; in data set [4] it was 2 nM. The EC50 in data set [3] was 2 nM; in data set [5] it was > 3000 nM; in data set [7], 350 nM.

As for `Cc1c(C(=O)c2ccc(Cl)cc2)c2ccc(OC(F)(F)F)cc2n1Cc1cccc(O[C@H](C(=O)O)C(C)C)c1`, the results for the Activity in the data set with Mus musculus [1] and in the data set with Mus musculus [8] were 76% and 37%, respectively. Besides, the IC50 in data set [2] turned out to be 2980 nM; in data set [4], 17 nM. Besides, the EC50 worked out at 21 nM in data set [3], 370 nM in data set [5] and 360 nM in data set [7]. In data set [6], this compound gave an AUC of 1.5 µM·h.

Consider `Cc1c(Cc2cccc(OCC(=O)O)c2)c2cc(OC(F)(F)F)ccc2n1C(=O)c1ccc(Cl)cc1`, for which the IC50 is > 15000 nM in data set [2] and 1 nM in data set [4]. For the same compound, the EC50 in data set [3] is 3 nM; in data set [5], > 3000 nM; in data set [7] it was > 3000 nM.

`Cc1c(C(=O)c2ccc(Cl)cc2)c2ccc(OC(F)(F)F)cc2n1Cc1cccc(OC2(C(=O)O)CCC2)c1`: the IC50 in data set [2] was found to be 1080 nM; in data set [4] it was 16 nM. For the same compound, the EC50 in data set [3] came out at 12 nM; in data set [5], 185 nM; in data set [7] it was 150 nM.

In the case of `Cc1c(C(=O)c2ccc(Cl)cc2)c2ccc(OC(F)(F)F)cc2n1Cc1cccc(O[C@H](C)C(=O)O)c1`, the Activity in the data set on Mus musculus [1] is listed as 105%; in the data set with Mus musculus [8] it was 90%. The IC50 was > 15000 nM in data set [2] and 11 nM in data set [4]. For the same compound, the EC50 worked out at 4 nM in data set [3], 320 nM in data set [5] and 28 nM in data set [7]. The AUC in data set [6] was found to be 1.1 µM·h.

As for `CCC[C@@H](Oc1cccc(Cn2c(C)c(C(=O)c3ccc(Cl)cc3)c3ccc(OC(F)(F)F)cc32)c1)C(=O)O`, the Activity turned out to be 94% in the data set with Mus musculus [1] and 80% with Mus musculus [8]. Further, the results for the IC50 in data set [2] and in data set [4] were > 15000 nM and 12 nM, respectively. Besides, the EC50 in data set [3] worked out at 10 nM; in data set [5], 380 nM; in data set [7] it was 110 nM. In data set [6], this compound displayed an AUC of 1.7 µM·h.

As usually defined, the IC50 is the point on the concentration scale where inhibition reaches its midpoint. One may read the EC50 as the concentration needed to bring the measured effect to its halfway point. As usually defined, the AUC is concentration integrated over time.
